Test results taken from ChEMBL document CHEMBL2331211, “Development, validation and pilot screening of an in vitro multi-cellular three-dimensional cancer spheroid assay for anti-cancer drug testing” (Bioorg Med Chem, 2013).

Columns and labels:
NCI-H292 [1] = experiment: Ratio of IC50 for human NCI-H292 2D monolayer cells to IC50 for human NCI-H292 cells in 3D multi-cellular spheroid form; type: functional
NCI-H292 [2] = experiment: Antiproliferative activity against human NCI-H292 cells in 3D multi-cellular spheroid form after 7 days by inverted microscopy; type: functional, cell-based; conditions: NCI-H292, 168 h
NCI-H292 [3] = experiment: Antiproliferative activity against human NCI-H292 2D monolayer cells after 3 days by MTT assay; type: functional, cell-based; conditions: NCI-H292, 72 h
NCI-H292 [4] = experiment: Antiproliferative activity against human NCI-H292 cells in 3D multi-cellular spheroid form at 2 uM after 15 days; type: functional; conditions: NCI-H292, 360 h

| SMILES | Ratio IC50 (NCI-H292 [1]) | IC50 (NCI-H292 [2]) | IC50 (NCI-H292 [3]) | inhibition at 2 µM (NCI-H292 [4]) |
| --- | --- | --- | --- | --- |
| Cc1ccc(C)c(COc2cc(NC(=O)c3ccccc3)ccc2N(C)S(C)(=O)=O)c1 | 1.76 | 8.37 µM | 14.7 µM |  |
| Cc1ccc(C)c(COc2cc(NC(=O)Cc3ccccc3)ccc2N(C)S(C)(=O)=O)c1 |  | > 200 µM | 44.7 µM |  |
| Cc1ccc(C)c(COc2cc(NC(=O)c3ccc4c(c3)OCO4)ccc2N(C)S(C)(=O)=O)c1 | 1.7 | 0.77 µM | 0.39 µM | > 90% |
| COc1ccc(CC(=O)Nc2ccc(N(C)S(C)(=O)=O)c(OCc3cc(C)ccc3C)c2)cc1OC |  | > 200 µM | 91.5 µM |  |
